# In US10918645B2 (LIFEARC, priority 2016, dated 2021):
# Columns and labels:
# Type in all cases: biochemical
# Conditions in all cases: 1 μM inhibitor concentration
# RSK1 = RSK1 (Homo sapiens (Human), UniProt Q15418); test: RSK1 kinase selectivity assay
# Method: MAPKAP-K1a (5-20 mU diluted in 20 mM MOPS pH 7.5, 1 mM EDTA, 0.01% Brij35, 5% glycerol, 0.1% b-mercaptoethanol, 1 mg/ml BSA) is assayed against […] in a final volume of 25.5 μl containing 50 mM Na-b-glycerophosphate pH 7.5, 0.5 mM EDTA, 30 μM substrate peptide, 10 mM magnesium acetate and 0.05 mM [33P-g-ATP] (50-1000 cpm/pmole) and incubated for 40 min at room temperature. Assays are stopped by addition of 5 μl of 0.5 M (3%) orthophosphoric acid and then harvested onto P81 Unifilter plates with a wash buffer of 50 mM orthophosphoric acid.
# PKBb = PKBb (Homo sapiens (Human), UniProt P31751, S474D); test: PKBb kinase selectivity assay
# Method: ΔPH-PKBbeta-S474D (5-20 mU diluted in 50 mM Tris pH 7.5, 0.1 mM EGTA, 0.1% b-mercaptoethanol, 1 mg/ml BSA) is assayed against a modified Crosstide peptide ([…]) in a final volume of 25.5 μl containing 50 mM Tris pH 7.5, 0.05% b-mercaptoethanol, 30 μM substrate peptide, 10 mM magnesium acetate and 0.05 mM [33P-g-ATP](50-1000 cpm/pmole) and incubated for 30 min at room temperature. Assays are stopped by addition of 5 μl of 0.5 M (3%) orthophosphoric acid and then harvested onto P81 Unifilter plates with a wash buffer of 50 mM orthophosphoric acid.
# MNK1 = MNK1 (Homo sapiens (Human), UniProt Q9BUB5); test: MNK1 kinase selectivity assay
# Method: (§1) 5-20 mU of MNK1 (diluted in 50 mM Tris (pH 7.5), 0.1 mM EGTA, 1 mg/ml BSA, 0.1%, b-Mercaptoethanol) is assayed against substrate peptide (eIF4E) in a final volume of 25.5p1 containing 50 mM Tris (pH 7.5), 0.1 mM EGTA, 0.1%, b-Mercaptoethanol, 0.5 mg/ml substrate peptide, 10 mM magnesium acetate and 0.05 mM [33P-g-ATP](500-1000 cpm/pmole) and incubated for 30 mins at room temperature. Assays are stopped by addition of 5p1 of 0.5M (3%) orthophosphoric acid. Assays are harvested onto P81 Unifilter plates using a wash buffer of 50 mM orthophosphoric acid.
# SmMLCK = SmMLCK (Homo sapiens (Human), UniProt Q15746); test: SmMLCK kinase selectivity assay
# Method: as §1, with “smMLCK” for “MNK1”, “Hepes” for “Tris”, “([…])” for “(eIF4E)”, “25.5 μl” for “25.5p1”, “5 mM CaCl2, […] Calmodulin, 300 μM” for “0.1%, b-Mercaptoethanol, 0.5 mg/ml”, “5 μl” for “5p1”
# CDK2-CyclinA = CDK2-CyclinA (Homo sapiens (Human), UniProt P24941); test: CDK2-CyclinA kinase selectivity assay
# Method: CDK2/cyclin A (5-20 mU diluted in 50 mM Hepes pH 7.5, 1 mM DTT, 0.02% Brij35, 100 mM NaCl) is assayed against Histone H1 in a final volume of 25.5 μl containing 50 mM Hepes pH7.5, 1 mM DTT, 0.02% Brij35, 100 mM NaCl, Histone H1 (1 mg/ml), 10 mM magnesium acetate and 0.02 mM [33P-g-ATP](500-1000 cpm/pmole) and incubated for 30 min at room temperature. Assays are stopped by addition of 5 μl of 0.5 M (3%) orthophosphoric acid and then harvested onto P81 Unifilter plates with a wash buffer of 50 mM orthophosphoric acid.
# AuroraA = AuroraA (Homo sapiens (Human), UniProt O14965); test: AuroraA kinase selectivity assay
# Method: Aurora A (5-20 mU diluted in 50 mM Tris pH 7.5, 0.1 mM EGTA, 0.1% β-mercaptoethanol, 1 mg/ml BSA) is assayed against […] in a final volume of […] containing 50 mM Tris pH 7.5, 0.1 mM EGTA, 0.3 mM […] 10 mM magnesium acetate and 0.005 mM [33P-γ-ATP](50-1000 cpm/pmole) and incubated for 30 min at room temperature. Assays are stopped by addition of 5 μl of 0.5 M (3%) orthophosphoric acid and then harvested onto P81 Unifilter plates with a wash buffer of 50 mM orthophosphoric acid.
# IKKe = IKKe (Homo sapiens (Human), UniProt Q14164); test: IKKe kinase selectivity assay
# Method: (§2) 5-20 mU of IKKepsilon (DU14231)(diluted in 50 mM Tris (pH 7.5), 0.1 mM EGTA, 1 mg/ml BSA) is assayed against MBP in a final volume of 25.5 μl containing 50 mM Tris (pH 7.5), 0.1 mM EGTA, 0.33 mg/ml MBP, 10 mM magnesium acetate and 0.05 mM [33P-g-ATP](500-1000 cpm/pmole) and incubated for 30 mins at room temperature. Assays are stopped by addition of 5 μl of 0.5M (3%) orthophosphoric acid. Assays are harvested onto P81 Unifilter plates using a wash buffer of 50 mM orthophosphoric acid.
# IRR = IRR (Homo sapiens (Human), UniProt P14616); test: IRR kinase selectivity assay
# Method: as §2, with “IRR (diluted” for “IKKepsilon (DU14231)(diluted”, “Hepes” for “Tris”, “EGTA)” for “EGTA, 1 mg/ml BSA)”, “0.005” for “0.05”
# Sequence of AuroraA (O14965 whole entry): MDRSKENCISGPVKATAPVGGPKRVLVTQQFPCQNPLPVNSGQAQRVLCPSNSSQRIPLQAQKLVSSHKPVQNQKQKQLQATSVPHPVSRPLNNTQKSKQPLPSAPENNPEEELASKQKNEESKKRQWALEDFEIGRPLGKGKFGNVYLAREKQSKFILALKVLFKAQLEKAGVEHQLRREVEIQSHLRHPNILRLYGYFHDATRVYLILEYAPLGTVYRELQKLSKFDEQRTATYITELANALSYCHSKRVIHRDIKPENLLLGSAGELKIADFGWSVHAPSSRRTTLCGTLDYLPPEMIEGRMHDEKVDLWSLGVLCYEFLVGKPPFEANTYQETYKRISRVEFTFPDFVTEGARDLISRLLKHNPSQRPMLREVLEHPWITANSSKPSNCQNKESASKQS
# Sequence of PKBb (P31751 120-481 S474D): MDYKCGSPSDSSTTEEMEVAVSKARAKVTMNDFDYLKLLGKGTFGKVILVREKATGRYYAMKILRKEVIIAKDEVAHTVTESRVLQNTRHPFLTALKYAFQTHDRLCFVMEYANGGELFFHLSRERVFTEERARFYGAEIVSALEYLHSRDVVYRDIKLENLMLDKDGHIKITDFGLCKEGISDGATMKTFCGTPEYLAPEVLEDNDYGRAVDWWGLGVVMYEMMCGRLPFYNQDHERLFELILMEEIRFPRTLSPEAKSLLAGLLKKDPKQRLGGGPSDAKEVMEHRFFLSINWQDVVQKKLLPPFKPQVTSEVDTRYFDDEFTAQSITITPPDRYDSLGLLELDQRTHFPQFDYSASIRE
# Sequence of MNK1 (Q9BUB5 whole entry, species assumed): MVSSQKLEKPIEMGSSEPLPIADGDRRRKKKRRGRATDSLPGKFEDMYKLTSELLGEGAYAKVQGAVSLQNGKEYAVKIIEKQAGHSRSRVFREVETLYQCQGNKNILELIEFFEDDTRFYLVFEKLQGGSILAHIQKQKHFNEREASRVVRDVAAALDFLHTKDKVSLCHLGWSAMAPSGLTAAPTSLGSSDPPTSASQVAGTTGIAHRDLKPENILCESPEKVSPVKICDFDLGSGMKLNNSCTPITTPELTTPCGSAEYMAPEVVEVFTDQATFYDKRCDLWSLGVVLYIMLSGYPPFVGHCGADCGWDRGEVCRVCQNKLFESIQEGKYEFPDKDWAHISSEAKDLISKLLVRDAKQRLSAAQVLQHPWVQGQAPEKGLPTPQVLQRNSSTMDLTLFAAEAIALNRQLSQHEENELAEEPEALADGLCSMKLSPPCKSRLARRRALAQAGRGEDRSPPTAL
# Sequence of IRR (P14616 27-1297, species assumed): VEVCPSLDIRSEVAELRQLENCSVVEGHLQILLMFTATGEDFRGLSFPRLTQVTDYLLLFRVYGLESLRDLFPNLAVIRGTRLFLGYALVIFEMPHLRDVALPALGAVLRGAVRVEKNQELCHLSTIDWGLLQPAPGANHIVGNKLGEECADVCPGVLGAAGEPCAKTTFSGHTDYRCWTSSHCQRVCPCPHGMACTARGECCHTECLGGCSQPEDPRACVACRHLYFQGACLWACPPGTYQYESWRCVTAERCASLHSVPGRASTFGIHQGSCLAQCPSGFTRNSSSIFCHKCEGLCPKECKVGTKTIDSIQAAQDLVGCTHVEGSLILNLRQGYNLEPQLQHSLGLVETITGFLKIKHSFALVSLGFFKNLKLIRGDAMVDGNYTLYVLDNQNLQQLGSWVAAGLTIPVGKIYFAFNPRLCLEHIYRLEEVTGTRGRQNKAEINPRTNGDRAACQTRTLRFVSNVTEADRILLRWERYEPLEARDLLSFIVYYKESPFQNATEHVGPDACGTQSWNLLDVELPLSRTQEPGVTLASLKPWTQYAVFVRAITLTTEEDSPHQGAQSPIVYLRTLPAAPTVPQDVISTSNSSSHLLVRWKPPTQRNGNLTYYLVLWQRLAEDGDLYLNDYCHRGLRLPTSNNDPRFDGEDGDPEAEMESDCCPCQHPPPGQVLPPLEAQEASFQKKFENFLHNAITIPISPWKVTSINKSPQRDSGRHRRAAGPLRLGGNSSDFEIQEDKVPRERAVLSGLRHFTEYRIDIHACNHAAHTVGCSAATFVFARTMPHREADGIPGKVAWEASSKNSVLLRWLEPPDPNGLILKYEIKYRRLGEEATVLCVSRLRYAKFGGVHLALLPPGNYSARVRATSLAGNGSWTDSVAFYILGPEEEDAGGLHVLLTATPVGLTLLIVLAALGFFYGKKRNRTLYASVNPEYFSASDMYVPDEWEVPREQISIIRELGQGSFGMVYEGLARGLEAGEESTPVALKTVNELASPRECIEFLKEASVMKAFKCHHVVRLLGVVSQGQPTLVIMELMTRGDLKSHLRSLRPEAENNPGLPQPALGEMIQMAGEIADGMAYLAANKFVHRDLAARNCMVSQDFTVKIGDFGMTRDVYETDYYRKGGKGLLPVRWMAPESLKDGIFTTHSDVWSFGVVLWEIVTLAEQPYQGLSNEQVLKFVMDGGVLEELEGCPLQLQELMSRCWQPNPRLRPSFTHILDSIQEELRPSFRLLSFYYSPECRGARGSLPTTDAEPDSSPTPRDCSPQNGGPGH
# Sequence of IKKe (Q14164 whole entry, species assumed): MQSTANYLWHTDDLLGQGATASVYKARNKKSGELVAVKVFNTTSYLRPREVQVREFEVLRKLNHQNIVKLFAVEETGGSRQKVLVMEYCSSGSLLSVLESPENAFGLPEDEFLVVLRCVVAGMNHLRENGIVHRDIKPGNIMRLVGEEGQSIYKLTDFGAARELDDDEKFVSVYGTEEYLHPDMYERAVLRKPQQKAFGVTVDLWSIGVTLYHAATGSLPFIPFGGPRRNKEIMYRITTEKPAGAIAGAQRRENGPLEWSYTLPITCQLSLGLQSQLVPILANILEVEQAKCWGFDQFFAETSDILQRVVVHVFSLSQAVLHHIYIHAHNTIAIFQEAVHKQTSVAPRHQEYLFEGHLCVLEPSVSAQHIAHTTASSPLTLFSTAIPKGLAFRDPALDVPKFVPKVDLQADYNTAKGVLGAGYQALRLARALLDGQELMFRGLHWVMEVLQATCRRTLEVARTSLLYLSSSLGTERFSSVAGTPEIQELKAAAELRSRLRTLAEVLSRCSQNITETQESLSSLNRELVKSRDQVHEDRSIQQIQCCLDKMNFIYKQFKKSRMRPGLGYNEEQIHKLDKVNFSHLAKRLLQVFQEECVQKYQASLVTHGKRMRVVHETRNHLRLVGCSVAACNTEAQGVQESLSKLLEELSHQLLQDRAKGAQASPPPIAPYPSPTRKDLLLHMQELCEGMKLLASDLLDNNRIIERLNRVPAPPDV
# Sequence of RSK1 (Q15418 whole entry, species assumed): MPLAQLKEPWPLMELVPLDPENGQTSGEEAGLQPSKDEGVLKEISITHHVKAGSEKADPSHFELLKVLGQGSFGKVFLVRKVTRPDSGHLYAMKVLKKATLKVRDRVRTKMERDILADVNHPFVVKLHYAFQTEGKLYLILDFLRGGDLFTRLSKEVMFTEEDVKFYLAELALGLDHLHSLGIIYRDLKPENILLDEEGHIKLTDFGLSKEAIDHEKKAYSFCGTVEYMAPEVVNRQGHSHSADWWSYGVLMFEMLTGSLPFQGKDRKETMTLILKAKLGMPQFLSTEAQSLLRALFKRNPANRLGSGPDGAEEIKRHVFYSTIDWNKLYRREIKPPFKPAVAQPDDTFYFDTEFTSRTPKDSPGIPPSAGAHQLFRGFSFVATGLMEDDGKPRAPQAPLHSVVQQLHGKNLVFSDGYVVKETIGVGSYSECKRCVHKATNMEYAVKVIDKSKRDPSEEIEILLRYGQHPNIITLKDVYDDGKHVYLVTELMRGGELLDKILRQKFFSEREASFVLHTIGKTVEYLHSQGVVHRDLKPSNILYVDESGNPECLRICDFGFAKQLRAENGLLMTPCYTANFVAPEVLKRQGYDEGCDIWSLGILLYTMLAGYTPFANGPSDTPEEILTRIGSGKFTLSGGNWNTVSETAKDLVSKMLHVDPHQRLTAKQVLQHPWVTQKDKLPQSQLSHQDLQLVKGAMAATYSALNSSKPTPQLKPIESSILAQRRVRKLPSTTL
SMILES,percentage inhibition of RSK1 (RSK1) [percentage],percentage inhibition of PKBb (PKBb) [percentage],percentage inhibition of MNK1 (MNK1) [percentage],percentage inhibition of SmMLCK (SmMLCK) [percentage],percentage inhibition of CDK2-CyclinA (CDK2-CyclinA) [percentage],percentage inhibition of AuroraA (AuroraA) [percentage],percentage inhibition of IKKe (IKKe) [percentage],percentage inhibition of IRR (IRR) [percentage]
"c1cc2[nH]nc3c2c(n1)N(C1CCOCC1)CCC3 [Example 29, 6-(tetrahydro-2H-pyran-4-yl)-6,7,8,9-tetrahydro-2H-1,2,5,6-tetraazabenzo[cd]azulene]",10,0,0,11,30,0,9,6
"c1cc2[nH]nc3c2c(n1)N(C1CCC1)CCC3 [Example 22, 6-cyclobutyl-6,7,8,9-tetrahydro-2H-1,2,5,6-tetraazabenzo[cd]azulene]",0,0,0,16,16,0,0,8
CC(C)n1ncc2c1CN(C1CCN(C)CC1)c1nccc3[nH]nc-2c13 [Example 68],69,9,1,9,0,13,0,1
"c1cc2[nH]nc3c2c(n1)N(C1CCCC1)CCC3 [Example 23, 6-cyclopentyl-6,7,8,9-tetrahydro-2H-1,2,5,6-tetraazabenzo[cd]azulene]",0,0,0,15,0,0,0,4
CN1CCC(N2Cc3ccccc3-c3n[nH]c4ccnc2c34)CC1 [Example 55],41,10,50,16,10,9,5,18
